Results on three compounds are retold here after US9023789B2, “Amylin analogs and pharmaceutical compositions thereof” (Novo Nordisk A/S, priority 2012, dated 2015).

Numbered stars: 1 amine (or outer) side, 2 acyl side, 3 side chain; on linkers, the order of the positions; unused ones are H or OH. Bridge positions count the residues as written; N and C are the ends. Side chains are listed from the residue outwards. Peptide text beside a SMILES is read from it. * marks the point of attachment. C20 diacid = O=C(O)CCCCCCCCCCCCCCCCCCC(=O)*; γGlu = O=C(O)[C@H](CCC(=O)[*:2])N[*:1]

One test concerns Sprague Dawley (SD) rats. The test can be described thus: ASSAY (I) efficacy testing on appetite (food intake) using an ad libitum fed rat model. Format: in vivo. As to conditions: rat. In a few lines:
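Ad libitum fed SD rats (200–250 g) were housed singly on a reversed light/dark cycle and given one 0.01–3 mg/kg dose ip, po or sc just before lights-off, with 5–8 per dose group plus vehicle controls. Food intake was recorded hourly for 7 h, then at 24 h and sometimes 48 h; Grubbs outliers were excluded.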

The target in test [1] is T1, human amylin 3(a) receptor (human calcitonin receptor + RAMP-3) in BHK570 cells (Homo sapiens, UniProt O60896+P30988).
T1 construct: expressed in transfected cells
The test is described as follows: ASSAY (II)a functional assay, human amylin receptor (CRE luciferase). It counts as cell-based. In a few lines: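 Cells were seeded and cultured overnight, then incubated with standard or sample for 3 h at 37° C in serum-containing medium at pH 7.4. The medium was then swapped for PBS, LucLite was added for 30 min at room temperature, and luminescence was recorded. Cells were BHK with CRE-luc and calcitonin receptor, ± RAMP-3.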

The target in test [2] is T2, human amylin receptor (membranes from Amylin 3(a)/CRE-luc cells) (Homo sapiens, UniProt O60896+P30988).
T2 construct: expressed in transfected cells
T2 sequence (P30988 25-474): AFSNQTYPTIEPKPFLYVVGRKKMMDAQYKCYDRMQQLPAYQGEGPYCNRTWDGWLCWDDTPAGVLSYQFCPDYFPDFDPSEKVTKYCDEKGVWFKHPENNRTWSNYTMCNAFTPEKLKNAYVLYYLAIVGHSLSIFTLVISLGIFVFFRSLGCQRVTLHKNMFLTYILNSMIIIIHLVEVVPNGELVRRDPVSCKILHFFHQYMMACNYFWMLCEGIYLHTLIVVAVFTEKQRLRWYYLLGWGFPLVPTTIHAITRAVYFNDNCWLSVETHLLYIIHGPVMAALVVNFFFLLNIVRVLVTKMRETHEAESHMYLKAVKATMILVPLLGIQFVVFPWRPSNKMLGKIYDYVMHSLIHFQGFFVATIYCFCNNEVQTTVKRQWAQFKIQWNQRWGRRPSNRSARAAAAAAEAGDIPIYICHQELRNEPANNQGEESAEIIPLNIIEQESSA
T2 sequence (O60896 24-148 partner): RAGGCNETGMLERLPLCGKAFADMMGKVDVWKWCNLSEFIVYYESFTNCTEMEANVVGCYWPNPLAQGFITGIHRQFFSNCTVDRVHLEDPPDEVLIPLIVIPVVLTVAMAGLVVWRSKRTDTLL
The test can be described thus: ASSAY (V) binding to the human amylin receptor (SPA, 125I-rat amylin).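 Also: competition binding of cell membranes (35 ng/µL) mixed with SPA beads in 384-well plates at 40 µL total volume, read by scintillation counting.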

The next test deals with T3, rat calcitonin receptor (Rattus norvegicus, UniProt P32214).
T3 construct: expressed in transfected cells; host or cells: BHK tk'ts 13 (transient, FuGENE 6), membranes
T3 sequence (P32214 25-479 isoform P32214-2 limits assumed): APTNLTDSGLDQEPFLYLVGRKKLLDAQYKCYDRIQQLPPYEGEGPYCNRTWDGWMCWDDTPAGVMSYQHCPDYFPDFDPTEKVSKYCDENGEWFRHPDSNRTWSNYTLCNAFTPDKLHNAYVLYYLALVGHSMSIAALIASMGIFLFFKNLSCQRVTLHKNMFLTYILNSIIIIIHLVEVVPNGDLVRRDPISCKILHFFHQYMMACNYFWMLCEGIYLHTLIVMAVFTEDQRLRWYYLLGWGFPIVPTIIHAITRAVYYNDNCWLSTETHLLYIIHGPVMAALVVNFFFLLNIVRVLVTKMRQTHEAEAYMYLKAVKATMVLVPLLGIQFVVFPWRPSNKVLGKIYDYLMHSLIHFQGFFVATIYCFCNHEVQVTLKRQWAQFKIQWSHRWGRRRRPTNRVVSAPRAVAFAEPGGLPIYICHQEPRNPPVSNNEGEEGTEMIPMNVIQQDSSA
The test is described as follows: ASSAY (VIII) binding to the rat calcitonin receptor. The settings on record: Table 7, read-out: rCTR bind IC50. In a few lines: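 Rat calcitonin receptor is expressed transiently in BHK tk′ts 13 cells cultured in DMEM with 10% FBS. Roughly two days (approximately 48 hours) post-transfection, cells are harvested for membrane preparation.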

Where [3] appears, read: hCTR funct. EC50 divided by hAmylin-R funct. EC50.
Setting [4] is: hCTR funct. EC50 over hAmylin-R funct. EC50.
[5] abbreviates: human functional selectivity: hCTR funct. EC50 / hAmylin-R funct. EC50.
Setting [6] is: Table 5, selectivity, hCTR bind IC50 / hAmylin-R bind IC50.
Setting [7] is: Table 5a, selectivity, hCTR bind IC50 / hAmylin-R bind IC50.
[8] abbreviates: Table 5b, selectivity, hCTR bind IC50 / hAmylin-R bind IC50.
Where [9] appears, read: Table 5c, selectivity, hCTR bind IC50 / hAmylin-R bind IC50.
The mark [10] stands for this setting: Table 7, human binding selectivity, included for comparison.
Where [11] appears, read: Table 7a (preferred compounds), human binding selectivity, included for comparison.
The mark [12] stands for this setting: ratio of human calcitonin receptor binding IC50 to human amylin receptor binding IC50.

Consider `CC[C@H](C)[C@H](NC(=O)[C@H](C)NC(=O)CNC(=O)[C@H](Cc1ccccc1)NC(=O)[C@H](CC(N)=O)NC(=O)[C@@H]1CCCN1C(=O)[C@H](CO)NC(=O)[C@H](CO)NC(=O)[C@H](Cc1c[nH]cn1)NC(=O)[C@H](CCCNC(=N)N)NC(=O)[C@H](CC(C)C)NC(=O)[C@H](Cc1ccccc1)NC(=O)[C@H](CC(N)=O)NC(=O)[C@H](C)NC(=O)[C@H](CC(C)C)NC(=O)[C@H](CCCNC(=N)N)NC(=O)[C@H](CCC(N)=O)NC(=O)[C@@H](NC(=O)[C@H](C)NC(=O)[C@@H]1CSSC[C@H](NC(=O)[C@H](CCCNC(=N)N)NC(=O)CNC(=O)CC[C@H](NC(=O)CCCCCCCCCCCCCCCCCCC(=O)O)C(=O)O)C(=O)N[C@@H](CC(N)=O)C(=O)N[C@@H]([C@@H](C)O)C(=O)N[C@@H](C)C(=O)N[C@@H]([C@@H](C)O)C(=O)N1)[C@@H](C)O)C(=O)N1CCC[C@H]1C(=O)N[C@@H](CO)C(=O)N[C@@H](CO)C(=O)N[C@H](C(=O)N[C@@H](CC(N)=O)C(=O)N[C@H](C(=O)NCC(=O)N[C@@H](CO)C(=O)N[C@@H](Cc1c[nH]cn1)C(=O)N[C@H](C(=O)N[C@@H](Cc1ccc(O)cc1)C(N)=O)[C@@H](C)O)C(C)C)[C@@H](C)O` [Example 47] ({C20 diacid-γGlu}-GRCNTATCATQRLANFLRHSSPNFGAIPSSTNVGSHTY-NH2; disulfide 3-8), for which the “Food intake reduction 0-24 h 30 nmol/kg (%)” value with Sprague Dawley (SD) rats (0-24 h) is 51%. The “Food intake reduction 24-48 h 30 nmol/kg (%)” value in the test with Sprague Dawley (SD) rats (24-48 h) amounted to 0%. For the same compound, the “Ratio hCT/hAmylin funct.” value in test [1] (setting [3]), in test [1] (setting [4]) and in test [1] (setting [5]) was 6.0 in each case. Also, the “Ratio hCT/hAmylin binding” value in test [2] (setting [6]), in test [2] (setting [7]), in test [2] (setting [8]), in test [2] (setting [9]), in test [2] (setting [10]) and in test [2] (setting [11]) was 44.9 throughout. The “Ratio hCT/hAmylin binding” value in test [2] (setting [12]) came out at 44.9. The IC50 on rat calcitonin receptor stood at 17.1 nM.
Consider `CC[C@H](C)[C@H](NC(=O)[C@H](C)NC(=O)CNC(=O)[C@H](Cc1ccccc1)NC(=O)[C@H](CC(N)=O)NC(=O)[C@@H]1CCCN1C(=O)[C@H](CO)NC(=O)[C@H](CO)NC(=O)[C@H](Cc1c[nH]cn1)NC(=O)[C@H](CCCNC(=N)N)NC(=O)[C@H](CC(C)C)NC(=O)[C@H](Cc1ccccc1)NC(=O)[C@H](CCC(=O)O)NC(=O)[C@H](C)NC(=O)[C@H](CC(C)C)NC(=O)[C@H](CCCNC(=N)N)NC(=O)[C@H](CCC(N)=O)NC(=O)[C@@H](NC(=O)[C@H](C)NC(=O)[C@@H]1CSSC[C@H](NC(=O)[C@@H](N)CCCCNC(=O)CC[C@H](NC(=O)CCCCCCCCCCCCCCCCCCC(=O)O)C(=O)O)C(=O)N[C@@H](CC(N)=O)C(=O)N[C@@H]([C@@H](C)O)C(=O)N[C@@H](C)C(=O)N[C@@H]([C@@H](C)O)C(=O)N1)[C@@H](C)O)C(=O)N1CCC[C@H]1C(=O)N[C@@H](CO)C(=O)N[C@@H](CO)C(=O)N[C@H](C(=O)N[C@@H](CC(N)=O)C(=O)N[C@H](C(=O)NCC(=O)N[C@@H](CO)C(=O)N[C@@H](CCCNC(=N)N)C(=O)N[C@H](C(=O)N[C@@H](Cc1ccc(O)cc1)C(N)=O)[C@@H](C)O)C(C)C)[C@@H](C)O` [Example 51] (H-K([γGlu-C20 diacid])CNTATCATQRLAEFLRHSSPNFGAIPSSTNVGSRTY-NH2; disulfide 2-7 (inferred); N-terminus assumed), for which the “Food intake reduction 0-24 h 30 nmol/kg (%)” value with Sprague Dawley (SD) rats (0-24 h) was found to be 52%. Besides, the “Food intake reduction 24-48 h 30 nmol/kg (%)” value with Sprague Dawley (SD) rats (24-48 h) was 30%. The “Ratio hCT/hAmylin funct.” value in test [1] (setting [3]), in test [1] (setting [4]) and in test [1] (setting [5]) was 14.0 in each case. Moreover, the “Ratio hCT/hAmylin binding” value in test [2] (setting [6]), in test [2] (setting [7]), in test [2] (setting [8]), in test [2] (setting [9]), in test [2] (setting [10]) and in test [2] (setting [11]) was 37.5 in each case. For the same compound, the “Ratio hCT/hAmylin binding” value in test [2] (setting [12]) was determined as 37.5. At rat calcitonin receptor, the half-maximal inhibitory concentration (IC50) stood at 62 nM.
On to `CC[C@H](C)[C@H](NC(=O)[C@H](C)NC(=O)CNC(=O)[C@H](Cc1ccccc1)NC(=O)[C@H](CC(N)=O)NC(=O)[C@@H]1CCCN1C(=O)[C@H](CO)NC(=O)[C@H](CO)NC(=O)[C@H](Cc1c[nH]cn1)NC(=O)[C@H](CCCNC(=N)N)NC(=O)[C@H](CC(C)C)NC(=O)[C@H](Cc1ccccc1)NC(=O)[C@H](CC(=O)O)NC(=O)[C@H](C)NC(=O)[C@H](CC(C)C)NC(=O)[C@H](CCCNC(=N)N)NC(=O)[C@H](CCC(N)=O)NC(=O)[C@@H](NC(=O)[C@H](C)NC(=O)[C@@H]1CSSC[C@H](NC(=O)[C@@H](N)CCCCNC(=O)CC[C@H](NC(=O)CC[C@H](NC(=O)CCCCCCCCCCCCCCCCCCC(=O)O)C(=O)O)C(=O)O)C(=O)N[C@@H](CC(N)=O)C(=O)N[C@@H]([C@@H](C)O)C(=O)N[C@@H](C)C(=O)N[C@@H]([C@@H](C)O)C(=O)N1)[C@@H](C)O)C(=O)N1CCC[C@H]1C(=O)N[C@@H](CO)C(=O)N[C@@H](CO)C(=O)N[C@H](C(=O)N[C@@H](CC(N)=O)C(=O)N[C@H](C(=O)NCC(=O)N[C@@H](CO)C(=O)N[C@@H](CCCNC(=N)N)C(=O)N[C@H](C(=O)N[C@@H](Cc1ccc(O)cc1)C(N)=O)[C@@H](C)O)C(C)C)[C@@H](C)O` [Example 52, N-ε-1-{(S)-4-carboxy-4-[(S)-4-carboxy-4-(19-carboxynonadecanoylamino)butyrylamino]butyryl}-[Asp14,Arg17,Pro21,Pro27,Arg35]-human amylin], for which the “Food intake reduction 0-24 h 3 nmol/kg (%)” value in the test on Sprague Dawley (SD) rats (3 nmol/kg, 0-24 h) is listed as 25%. Moreover, the “Food intake reduction 24-48 h 3 nmol/kg (%)” value in the test with Sprague Dawley (SD) rats (3 nmol/kg, 24-48 h) was 15%. The “Food intake reduction 0-24 h 30 nmol/kg (%)” value with Sprague Dawley (SD) rats (0-24 h) is given as 63%. The “Food intake reduction 24-48 h 30 nmol/kg (%)” value in the test with Sprague Dawley (SD) rats (24-48 h) came to 50%. For the same compound, the “Ratio hCT/hAmylin funct.” value in test [1] (setting [3]), in test [1] (setting [4]) and in test [1] (setting [5]) was 41.4 throughout. In addition, the “Ratio hCT/hAmylin binding” value in test [2] (setting [6]), in test [2] (setting [7]), in test [2] (setting [8]), in test [2] (setting [9]), in test [2] (setting [10]) and in test [2] (setting [11]) was 81.6 throughout. The “Ratio hCT/hAmylin binding” value in test [2] (setting [12]) is 81.6. For the same compound, the IC50 on rat calcitonin receptor came to 159 nM.

The IC50 is the midpoint of a concentration-inhibition curve.
